In patent US20190388421A1, “NOVEL COMPOUNDS AND PHARMACEUTICAL COMPOSITIONS THEREOF FOR THE TREATMENT OF FIBROSIS” (Galapagos NV, priority 2016, published 2019):

Columns and labels:
[1] = molecular target: T1, human GPCR sphingosine 1-phosphate receptor 1 (S1PR1) (Homo sapiens, UniProt P21453); experiment: S1PR1 selectivity assay (Ca2+ flux, antagonist); type: cell-based; conditions: S1P1 antagonist EC50, CHO cells overexpressing human S1PR1 and Gq protein
T1 construct: host or cells: CHO
How it was run: (§1)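 CHO cells stably overexpressing human S1PR1 or S1PR5 with Gq were preincubated with compound 15 min at 37 °C, then stimulated with S1P at EC80 (S1PR1) or an S1PR5-specific agonist (S1PR5). Ca2+ fluorescence was read for 3 min; 10-point 1/3 dilutions from 20 μM final, normalized to vehicle and EC80 trigger, gave EC50.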

HFL-1 cells [2] = experiment: IL8 assay (S1P induced IL-8 production); type: cell-based; conditions: Homo sapiens, HFL1; S1P (1 μM) induced IL-8, HFL-1 cells, without HSA
Experimental: (§2) S1P is able to induce cytokines such as IL-8 in a process that is S1PR2 dependent (O'Sullivan et al, 2014; Bruennert et al, 2015). This assay is designed to test inhibitory activity of compounds on S1P induced IL-8 on HFL-1 cells, a human fetal lung fibroblast cell line.
Human Fetal Lung cells (HFL-1) are seeded in 96 well plates in growth medium (F12K+10% heat inactivated FBS+1% Pen/strep). After overnight incubation at 37° C., 5% CO2 cells are refreshed with starvation medium without HSA (F12K+1% FBS+1% Pen/strep). On day three, compounds are added (10 point serial dilution, 30 μM highest concentration, ⅓ dilution, 0.3% DMSO final) and plates are incubated for one hour at 37° C., 5% CO2. Subsequently S1P at 1 μM final concentration is added and plates are incubated for 16 to 24 hours at 37° C., 5% CO2 after which the supernatant was collected. IL-8 levels in the supernatant are determined with the IL-8 ELISA of R&D systems.

[3] = molecular target: T2, human GPCR sphingosine 1-phosphate receptor 2 (S1PR2) (Homo sapiens, UniProt O95136); experiment: S1P2 antagonist assay (Ca2+ flux, S1P at EC80); type: cell-based; conditions: CHO-S1PR2 cells, highest concentration 20 μM
T2 construct: host or cells: CHO
How it was run: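 CHO cells stably overexpressing human S1PR2, serum-starved 1 h and loaded with Fluo8 dye, were read for 3 min after compound addition, then stimulated with S1P at EC80 after 15 min at 37 °C. Top concentration 20 μM in a 10-point 1/3 series; Ca2+ fluorescence ratio normalized to vehicle and S1P EC80, giving EC50.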

S1PR2 = molecular target: T3, S1PR2 (Homo sapiens, UniProt O95136); experiment: GTP-γS binding assay ([35S]GTPγS, S1P at EC80, S1PR2 membranes); type: biochemical; conditions: membranes from stable cell line over expressing S1PR2, read-out: S1PR2 EC
T3 construct: expressed in transfected cells
How it was run: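 Compounds tested against S1P at its EC80 on membranes (2.5 μg/well) from a stable S1PR2-overexpressing line, pre-incubated with 1 μM GDP 15 min at 4 °C. Buffer: 20 mM Tris pH 7.5, 10 mM MgCl2, 100 mM NaCl, 0.1% fatty-acid-free BSA, 50 ug/ml saponin. Incubated 4 h at room temperature; [35S]GTPγS binding read by WGA SPA beads.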

[4] = molecular target: T4, human GPCR sphingosine 1-phosphate receptor 5 (S1PR5) (Homo sapiens, UniProt Q9H228); experiment: S1PR5 selectivity assay (Ca2+ flux, antagonist, S1PR5 specific agonist trigger); type: cell-based; conditions: S1P5 antagonist EC50, CHO cells overexpressing human S1PR5 and Gq protein
T4 construct: host or cells: CHO
How it was run: as §1

HFL-1 cells [5] = experiment: IL8 assay in the presence of Human Serum Albumin; type: cell-based; conditions: HFL1, S1P (5 μM) induced IL-8, HFL-1 cells, with 2% HSA, read-out: HSA IL8 EC50
Experimental: as §2
To evaluate the influence of plasma protein binding of Sip as well as compound, the S1P induced IL-8 levels were evaluated in presence of 2% Human Serum Albumin (HSA, equivalent to 40% human serum). By adding 2% HSA, which affects both the activity of the compounds as well as the S1P potency, the physiological condition are reproduced and the shift in potency expected under in vivo serum conditions can be measured.
Human Fetal Lung cells (HFL-1) are seeded in 96 well plates in growth medium (F12K+10% heat inactivated FBS+1% Pen/strep). After overnight incubation at 37° C., 5% CO2 cells are refreshed with starvation medium with HSA (F12K+1% FBS+1% Pen/strep+1.95% HSA). On day three, compounds are added (10 point serial dilution, 30 μM highest concentration, 1/3 dilution, 0.3% DMSO final) and plates are incubated for 1 h at 37° C., 5% CO2. Subsequently S1P at 5 μM final concentration is added and plates are incubated for 16 to 24 h at 37° C., 5% CO2 after which the supernatant was collected. IL-8 levels in the supernatant are determined with the IL-8 ELISA of R&D systems.

T2 sequence (O95136 whole entry): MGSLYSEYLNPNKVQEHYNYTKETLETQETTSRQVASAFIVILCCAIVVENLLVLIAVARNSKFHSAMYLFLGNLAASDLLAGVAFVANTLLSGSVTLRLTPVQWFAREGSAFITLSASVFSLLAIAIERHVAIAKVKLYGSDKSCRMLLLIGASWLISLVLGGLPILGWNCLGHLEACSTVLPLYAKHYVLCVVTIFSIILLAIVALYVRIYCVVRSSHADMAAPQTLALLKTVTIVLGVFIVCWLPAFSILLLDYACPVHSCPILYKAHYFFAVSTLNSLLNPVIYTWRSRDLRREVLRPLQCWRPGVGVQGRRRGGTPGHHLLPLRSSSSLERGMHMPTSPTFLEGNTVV
T3 sequence (O95136 whole entry): as above
T4 sequence (Q9H228 whole entry): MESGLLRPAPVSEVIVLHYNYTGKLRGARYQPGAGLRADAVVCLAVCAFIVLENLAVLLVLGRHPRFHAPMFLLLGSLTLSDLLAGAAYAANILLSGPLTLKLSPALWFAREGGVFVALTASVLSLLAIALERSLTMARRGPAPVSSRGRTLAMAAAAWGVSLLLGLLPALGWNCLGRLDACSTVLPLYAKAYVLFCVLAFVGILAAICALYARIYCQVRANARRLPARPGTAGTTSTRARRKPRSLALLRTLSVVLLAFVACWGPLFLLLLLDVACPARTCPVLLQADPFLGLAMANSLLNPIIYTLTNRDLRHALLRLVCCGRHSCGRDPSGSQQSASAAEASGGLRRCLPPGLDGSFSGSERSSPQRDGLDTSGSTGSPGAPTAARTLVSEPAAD
T1 sequence (P21453 whole entry): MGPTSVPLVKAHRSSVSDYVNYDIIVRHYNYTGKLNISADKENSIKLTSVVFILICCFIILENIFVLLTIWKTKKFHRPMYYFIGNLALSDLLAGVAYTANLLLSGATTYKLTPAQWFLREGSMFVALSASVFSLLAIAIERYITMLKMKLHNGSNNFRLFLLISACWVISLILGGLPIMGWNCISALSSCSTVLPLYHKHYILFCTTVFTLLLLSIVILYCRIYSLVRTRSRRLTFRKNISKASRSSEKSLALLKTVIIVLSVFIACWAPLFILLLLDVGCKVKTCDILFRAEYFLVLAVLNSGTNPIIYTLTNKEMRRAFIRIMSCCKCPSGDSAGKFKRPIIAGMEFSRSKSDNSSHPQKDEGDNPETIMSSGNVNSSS

For `COCC(C)Oc1cc(NC(=O)NCc2cc(C)c(-c3cn(C)nc3C(F)(F)F)nn2)cc(C(F)(F)F)n1` (stereo not drawn) [Compound 41, 1-[2-(2-methoxy-1-methyl-ethoxy)-6-(trifluoromethyl)-4-pyridyl]-3-[[5-methyl-6-[1-methyl-3-(trifluoromethyl)pyrazol-4-yl]pyridazin-3-yl]methyl]urea], the EC50 [1] was at least 19800 nM, the EC50 (HFL-1 cells [2]) was 48.9 nM and the EC50 [3] was 101 nM. The EC50 (S1PR2) was 542 nM, the EC50 [4] was at least 19800 nM and the IC50 (HFL-1 cells [5]) was 597 nM.
Work on `CCOc1nc(C(F)(F)F)cc(NC(=O)NC(C)c2cc(C)c(-c3cn(C)nc3C(F)(F)F)nn2)c1C` (stereo not drawn) [Compound 45, 1-[2-ethoxy-3-methyl-6-(trifluoromethyl)-4-pyridyl]-3-[1-[5-methyl-6-[1-methyl-3-(trifluoromethyl)pyrazol-4-yl]pyridazin-3-yl]ethyl]urea] yielded an EC50 [1] of at least 19800 nM, an EC50 (HFL-1 cells [2]) of 41.1 nM and an EC50 [3] of 19.7 nM. For the same molecule, the EC50 (S1PR2) was 211 nM, the EC50 [4] was 6610 nM and the IC50 (HFL-1 cells [5]) was 84.2 nM.
For `CCOc1nc(C(F)(F)F)cc(NC(=O)NCc2cc(C)c(-c3cn(C)nc3C(F)(F)F)nn2)c1CC` [Compound 46, 1-[2-ethoxy-3-ethyl-6-(trifluoromethyl)-4-pyridyl]-3-[[5-methyl-6-[1-methyl-3-(trifluoromethyl)pyrazol-4-yl]pyridazin-3-yl]methyl]urea], the EC50 [1] was 6610 nM, the EC50 (HFL-1 cells [2]) was 25.6 nM and the EC50 [3] was 17.2 nM. It also gave an EC50 (S1PR2) of 97 nM, an EC50 [4] of 6610 nM and an IC50 (HFL-1 cells [5]) of 9950 nM.
`Cc1cc(CNC(=O)Nc2cc(N3CC(F)(F)C3)nc(C(F)(F)F)c2)nnc1-c1cn(C)nc1C(F)(F)F` [Compound 47] was tested, and the EC50 [1] was 6610 nM, the EC50 (HFL-1 cells [2]) was 4.6 nM and the EC50 [3] was 9.3 nM. The EC50 (S1PR2) was 34.5 nM, the EC50 [4] was at least 19800 nM and the IC50 (HFL-1 cells [5]) was 42.4 nM.
`Cc1cc(CNC(=O)Nc2cc(OCC(F)F)nc(N3CC(F)(F)C3)c2)nnc1-c1cn(C)nc1C(F)(F)F` [Compound 48, 1-[2-(3,3-difluoroazetidin-1-yl)-6-(2,2-difluoroethoxy)-4-pyridyl]-3-[[5-methyl-6-[1-methyl-3-(trifluoromethyl)pyrazol-4-yl]pyridazin-3-yl]methyl]urea] was tested, and the EC50 [1] was 5100 nM, the EC50 (HFL-1 cells [2]) was 23.9 nM and the EC50 [3] was 27.1 nM. The EC50 (S1PR2) was 154 nM, the EC50 [4] was at least 19800 nM and the IC50 (HFL-1 cells [5]) was 104 nM.
In the case of `Cc1cc(CNC(=O)Nc2cc(Cl)nc(OCC(F)F)c2C)nnc1-c1cn(C)nc1C(F)(F)F` [Compound 50, 1-[6-chloro-2-(2,2-difluoroethoxy)-3-methyl-4-pyridyl]-3-[[5-methyl-6-[1-methyl-3-(trifluoromethyl)pyrazol-4-yl]pyridazin-3-yl]methyl]urea], the EC50 [1] is reported as 5920 nM, the EC50 (HFL-1 cells [2]) is reported as 1.5 nM and the EC50 [3] is reported as 8 nM. It also gave an EC50 (S1PR2) of 24.1 nM, an EC50 [4] of 3650 nM and an IC50 (HFL-1 cells [5]) of 74 nM.
`CCOc1cc(NC(=O)NCc2cc(C)c(-c3cn(C4CCOC4)nc3C(F)(F)F)nn2)cc(C(F)(F)F)n1` (stereo not drawn) [Compound 52, 1-[2-ethoxy-6-(trifluoromethyl)-4-pyridyl)-3-[[5-methyl-6-[1-tetrahydrofuran-3-yl-3-(trifluoromethyl)pyrazol-4-yl]pyridazin-3-yl]methyl]urea] gave an EC50 [1] of 5890 nM, an EC50 (HFL-1 cells [2]) of 7.8 nM and an EC50 [3] of 11.4 nM. For the same molecule, the EC50 (S1PR2) was 70.2 nM, the EC50 [4] was 6620 nM and the IC50 (HFL-1 cells [5]) was 79.3 nM.
Molecule `CCOc1cc(NC(=O)NCc2cc(C)c(-c3cn(CCOC)nc3C(F)(F)F)nn2)cc(C(F)(F)F)n1` [Compound 53, 1-[2-ethoxy-6-(trifluoromethyl)-4-pyridyl]-3-[[6-[1-(2-methoxyethyl)-3-(trifluoromethyl)pyrazol-4-yl]-5-methyl-pyridazin-3-yl]methyl]urea] has an EC50 [1] of 4020 nM, an EC50 (HFL-1 cells [2]) of 6.6 nM and an EC50 [3] of 10 nM. It also gave an EC50 (S1PR2) of 52.4 nM, an EC50 [4] of 6610 nM and an IC50 (HFL-1 cells [5]) of 51.2 nM.
`CCOc1cc(NC(=O)NCc2cc(C)c(-c3cn(C)nc3C3CC3)nn2)cc(C(F)(F)F)n1` [Compound 54, 1-[[6-(3-cyclopropyl-1-methyl-pyrazol-4-yl)-5-methyl-pyridazin-3-yl]methyl]-3-[2-ethoxy-6-(trifluoromethyl)-4-pyridyl]urea] gave an EC50 [1] of 2480 nM, an EC50 (HFL-1 cells [2]) of 11.6 nM and an EC50 [3] of 15.3 nM. It also gave an EC50 (S1PR2) of 151 nM, an EC50 [4] of 4580 nM and an IC50 (HFL-1 cells [5]) of 278 nM.
For `CCOc1cc(NC(=O)NCc2cc(C)c(-c3cn(CC4COCCO4)nc3C(F)(F)F)nn2)cc(C(F)(F)F)n1` (stereo not drawn) [Compound 55, 1-[[6-[1-(1,4-dioxan-2-ylmethyl)-3-(trifluoromethyl)pyrazol-4-yl]-5-methyl-pyridazin-3-yl]methyl]-3-[2-ethoxy-6-(trifluoromethyl)-4-pyridyl]urea], the EC50 [1] was at least 19800 nM, the EC50 (HFL-1 cells [2]) was 35.8 nM and the EC50 [3] was 16.9 nM. The EC50 (S1PR2) was 338 nM, the EC50 [4] was 6610 nM and the IC50 (HFL-1 cells [5]) was 179 nM.
Molecule `CCOc1nc(C#N)cc(NC(=O)NCc2cc(C)c(-c3cn(C)nc3C(F)(F)F)nn2)c1C` [Compound 57, 1-(6-cyano-2-ethoxy-3-methyl-4-pyridyl)-3-[[5-methyl-6-[1-methyl-3-(trifluoromethyl)pyrazol-4-yl]pyridazin-3-yl]methyl]urea] has an EC50 [1] of 6610 nM, an EC50 (HFL-1 cells [2]) of 0.9 nM and an EC50 [3] of 7.6 nM. The EC50 (S1PR2) was 24.4 nM, the EC50 [4] was 4620 nM and the IC50 (HFL-1 cells [5]) was 17.3 nM.
In the case of `Cc1cc(CNC(=O)Nc2cc(C#N)nc(OCC(F)F)c2C)nnc1-c1cn(C)nc1C(F)(F)F` [Compound 59, 1-(6-cyano-2-(2,2-difluoroethoxy)-3-methyl-4-pyridyl]-3-[[5-methyl-6-[1-methyl-3-(trifluoromethyl)pyrazol-4-yl]pyridazin-3-yl]methyl]urea], the EC50 [1] is reported as 6610 nM, the EC50 (HFL-1 cells [2]) is reported as 0.9 nM and the EC50 [3] is reported as 7.2 nM. For the same molecule, the EC50 (S1PR2) was 38.5 nM, the EC50 [4] was 5500 nM and the IC50 (HFL-1 cells [5]) was 116 nM.
`Cn1cc(-c2nnc(CNC(=O)Nc3cc(Cl)nc(OCC(F)F)c3)cc2N2CC(F)(F)C2)c(C(F)(F)F)n1` [Compound 60, 1-[2-chloro-6-(2,2-difluoroethoxy)-4-pyridyl]-3-[[5-(3,3-difluoroazetidin-1-yl)-6-[1-methyl-3-(trifluoromethyl)pyrazol-4-yl]pyridazin-3-yl]methyl]urea] was tested, and the EC50 [1] was 2800 nM, the EC50 (HFL-1 cells [2]) was 166 nM and the EC50 [3] was 3280 nM. The EC50 (S1PR2) was 1520 nM, the EC50 [4] was 6610 nM and the IC50 (HFL-1 cells [5]) was 4340 nM.
Molecule `CN(C)c1cc(CNC(=O)Nc2cc(Cl)nc(OCC(F)F)c2)nnc1-c1cn(C)nc1C(F)(F)F` [Compound 63, 1-[2-chloro-6-(2,2-difluoroethoxy)-4-pyridyl]-3-[[5-(dimethylamino)-6-[1-methyl-3-(trifluoromethyl)pyrazol-4-yl]pyridazin-3-yl]methyl]urea] has an EC50 [1] of 2080 nM, an EC50 (HFL-1 cells [2]) of 55.4 nM and an EC50 [3] of 66.8 nM. It also gave an EC50 (S1PR2) of 298 nM, an EC50 [4] of 11000 nM and an IC50 (HFL-1 cells [5]) of 829 nM.
`COc1cc(CNC(=O)Nc2cc(Cl)nc(OCC(F)F)c2)nnc1-c1cn(C)nc1C(F)(F)F` [Compound 64, 1-[2-chloro-6-(2,2-difluoroethoxy)-4-pyridyl]-3-[[5-methoxy-6-[1-methyl-3-(trifluoromethyl)pyrazol-4-yl]pyridazin-3-yl]methyl]urea] was tested, and the EC50 [1] was 1620 nM, the EC50 (HFL-1 cells [2]) was 16.6 nM and the EC50 [3] was 8.5 nM. For the same molecule, the EC50 (S1PR2) was 48.7 nM, the EC50 [4] was 4380 nM and the IC50 (HFL-1 cells [5]) was 119 nM.
